Test results from patent US9309224B2 (Deciphera Pharmaceuticals, LLC, priority 2013, dated 2016).
pIC50: −log10 of the molar value.

What was measured:
[1] = molecular target: T1, phospho-FMS in THP-1 cells (Homo sapiens, UniProt P07333); test: Phospho-FMS ELISA assay in THP-1 cells; assay type: cell-based; conditions: 4 hours compound, M-CSF stimulated; read-out: pFMS inhibition in THP-1 cells
T1 construct: endogenous in cells; host or cells: THP-1 (ATCC TIB-202)
Procedure: In a separate 96 well black clear bottom plate, one hundred and fifty thousand THP-1 cells were added per well in 100 μL in assay medium. Fifty microliters of diluted compound was then added to the cells. […] Lysates were prepared and used to perform the phospho-FMS ELISA as described by the manufacturer (catalog #DYC3268, R & D Systems, Minneapolis, Minn.). GraphPad Prism was used to calculate IC50 values obtained from data generated from the ELISA assay.

[2] = molecular target: T2, unphosphorylated c-FMS kinase (uFMS, Seq. ID no. 1) (Homo sapiens, UniProt P07333); test: uFMS kinase assay (pyruvate kinase/lactate dehydrogenase coupled); assay type: biochemical; conditions: ATP 500 μM
T2 construct: purchased Millipore
T2 sequence (P07333 538-972): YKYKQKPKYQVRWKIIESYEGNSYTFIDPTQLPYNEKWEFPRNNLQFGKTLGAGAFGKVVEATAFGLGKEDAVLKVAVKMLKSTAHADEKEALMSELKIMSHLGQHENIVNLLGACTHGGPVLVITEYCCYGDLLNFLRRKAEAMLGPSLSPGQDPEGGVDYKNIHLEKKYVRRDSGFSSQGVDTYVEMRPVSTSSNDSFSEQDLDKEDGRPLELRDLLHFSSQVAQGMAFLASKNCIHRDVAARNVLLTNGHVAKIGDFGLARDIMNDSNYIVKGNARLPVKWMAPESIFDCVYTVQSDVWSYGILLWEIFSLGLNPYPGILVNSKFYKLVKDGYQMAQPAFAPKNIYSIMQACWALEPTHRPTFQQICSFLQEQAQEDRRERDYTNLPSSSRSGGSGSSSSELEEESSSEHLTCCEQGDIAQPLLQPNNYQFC
Procedure: In this assay, the oxidation of NADH (thus the decrease at A340 nm) was continuously monitored spectrophometrically. The reaction mixture (100 μL) contained FMS (purchased from Millipore) (10 nM), polyE4Y (1 mg/mL), MgCl2 (10 mM), pyruvate kinase (4 units), lactate dehydrogenase (0.7 units), phosphoenol pyruvate (1 mM), NADH (0.28 mM) and ATP (500 μM) in 90 mM Tris buffer containing 0.2% octyl-glucoside and 1% DMSO, pH 7.5. The inhibition reaction was started by mixing serial diluted test compound with the above reaction mixture. The absorption at 340 nm was monitored continuously for 4 hours at 30° C. on Synergy 2 plate reader. The reaction rate was calculated using the 3 to 4 h time frame. Percent inhibition was obtained by comparison of reaction rate with that of a control (i.e. in the absence of test compound). IC50 values were calculated from a series of percent inhibition values determined at a range of inhibitor concentrations using software routines as implemented in the GraphPad Prism software package.

osteoclast precursors = test: Osteoclast tartrate-resistant acid phosphatase assay; assay type: cell-based; conditions: Osteoclast; 7-14 days, RANKL and M-CSF
Procedure: Diluted compound was transferred to a 384-well black clear bottom plate. Two-thousand five hundred osteoclast precursors (Lonza, Walkersville, Md.) were added per well in growth media containing Receptor Activator of Nuclear Factor Kappa-beta ligand (RANKL) and M-CSF (R&D Systems, Minneapolis, Minn.). Plates were incubated for 7-14 days at 37 degrees Celsius, 5% CO2, and 95% humidity to allow differentiation of osteoclast precursors. […] Tartrate-resistant acid phosphatase activity in the supernatant samples was determined using an acid phosphatase assay kit (Sigma, St. Louis, Mo.). Absorbance was measured at 550 nm using a plate reader. Data was analyzed using Prism software (Graphpad, San Diego, Calif.) to calculate IC50 values.

[3] = molecular target: T3, unphosphorylated PDGFRβ kinase (uPDGFRβ, Seq. ID No. 3) (Homo sapiens, UniProt P09619); test: Unphosphorylated PDGFRβ kinase assay (pyruvate kinase/lactate dehydrogenase coupled); assay type: biochemical; conditions: ATP 500 μM
T3 construct: purchased DeCode
T3 sequence (P09619 557-1105): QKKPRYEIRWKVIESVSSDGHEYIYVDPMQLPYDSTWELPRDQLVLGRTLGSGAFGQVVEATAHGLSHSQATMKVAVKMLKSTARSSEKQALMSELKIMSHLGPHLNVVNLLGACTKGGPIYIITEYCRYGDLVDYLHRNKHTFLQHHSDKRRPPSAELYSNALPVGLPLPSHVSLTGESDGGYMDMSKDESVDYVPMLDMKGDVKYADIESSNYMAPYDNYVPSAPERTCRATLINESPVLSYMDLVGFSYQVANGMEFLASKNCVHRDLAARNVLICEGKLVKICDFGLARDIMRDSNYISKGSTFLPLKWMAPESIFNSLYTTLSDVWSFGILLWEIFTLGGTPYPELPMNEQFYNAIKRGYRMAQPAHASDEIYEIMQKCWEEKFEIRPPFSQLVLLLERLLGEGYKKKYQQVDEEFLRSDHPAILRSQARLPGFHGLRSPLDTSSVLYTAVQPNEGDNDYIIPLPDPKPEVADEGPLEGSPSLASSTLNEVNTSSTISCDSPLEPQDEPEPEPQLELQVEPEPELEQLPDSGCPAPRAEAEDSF
Excerpt: Unphosyhorylated PDGFRβ (uPDGFRβkinase (Seq. ID No. 3) assay

[4] = molecular target: T4, unphosphorylated c-KIT kinase (uKIT, Seq. ID no. 2) (Homo sapiens, UniProt P10721); test: uKit kinase assay (pyruvate kinase/lactate dehydrogenase coupled); assay type: biochemical; conditions: ATP 2000 μM
T4 construct: uKit with N-terminal GST fusion used for
T4 sequence (P10721 with tags, fused parts or gaps): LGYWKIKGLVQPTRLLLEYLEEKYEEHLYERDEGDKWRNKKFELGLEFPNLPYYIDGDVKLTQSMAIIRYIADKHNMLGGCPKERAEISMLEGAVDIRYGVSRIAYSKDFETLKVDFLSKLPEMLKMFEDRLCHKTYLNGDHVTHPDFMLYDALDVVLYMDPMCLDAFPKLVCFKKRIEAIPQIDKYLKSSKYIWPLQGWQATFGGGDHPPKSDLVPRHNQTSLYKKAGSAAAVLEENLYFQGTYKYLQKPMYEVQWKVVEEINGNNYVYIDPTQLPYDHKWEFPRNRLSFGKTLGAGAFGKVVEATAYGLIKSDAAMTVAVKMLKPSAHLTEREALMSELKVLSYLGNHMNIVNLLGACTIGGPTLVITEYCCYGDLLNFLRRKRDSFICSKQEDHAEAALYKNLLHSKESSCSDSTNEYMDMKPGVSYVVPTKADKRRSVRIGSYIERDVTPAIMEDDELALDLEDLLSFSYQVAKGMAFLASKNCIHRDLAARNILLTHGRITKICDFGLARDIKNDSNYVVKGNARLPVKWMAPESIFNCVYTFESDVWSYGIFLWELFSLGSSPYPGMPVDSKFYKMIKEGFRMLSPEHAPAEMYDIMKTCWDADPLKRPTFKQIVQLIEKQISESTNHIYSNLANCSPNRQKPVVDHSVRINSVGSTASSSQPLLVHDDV
Procedure: In this assay, the oxidation of NADH (thus the decrease at A340 nm) was continuously monitored spectrophometrically. […] The inhibition reaction was started by mixing serial diluted test compound with the above reaction mixture. The absorption at 340 nm was monitored continuously for 4 hours at 30° C. on Synergy 2 plate reader (BioTech).

M-NFS-60 cells = test: M-NFS-60 cell proliferation assay; assay type: cell-based; conditions: 67 h incubation, resazurin
Procedure: M-NFS-60 Cell Proliferation Assay A serial dilution of test compound was dispensed into a 384-well black clear bottom plate (Corning, Corning, N.Y.). Two thousand five hundred cells were added per well in 50 μL complete growth medium. […] IC50 values were calculated from a series of percent inhibition values determined at a range of inhibitor concentrations using software routines as implemented in the GraphPad Prism software package.

T1 sequence (P07333 20-972): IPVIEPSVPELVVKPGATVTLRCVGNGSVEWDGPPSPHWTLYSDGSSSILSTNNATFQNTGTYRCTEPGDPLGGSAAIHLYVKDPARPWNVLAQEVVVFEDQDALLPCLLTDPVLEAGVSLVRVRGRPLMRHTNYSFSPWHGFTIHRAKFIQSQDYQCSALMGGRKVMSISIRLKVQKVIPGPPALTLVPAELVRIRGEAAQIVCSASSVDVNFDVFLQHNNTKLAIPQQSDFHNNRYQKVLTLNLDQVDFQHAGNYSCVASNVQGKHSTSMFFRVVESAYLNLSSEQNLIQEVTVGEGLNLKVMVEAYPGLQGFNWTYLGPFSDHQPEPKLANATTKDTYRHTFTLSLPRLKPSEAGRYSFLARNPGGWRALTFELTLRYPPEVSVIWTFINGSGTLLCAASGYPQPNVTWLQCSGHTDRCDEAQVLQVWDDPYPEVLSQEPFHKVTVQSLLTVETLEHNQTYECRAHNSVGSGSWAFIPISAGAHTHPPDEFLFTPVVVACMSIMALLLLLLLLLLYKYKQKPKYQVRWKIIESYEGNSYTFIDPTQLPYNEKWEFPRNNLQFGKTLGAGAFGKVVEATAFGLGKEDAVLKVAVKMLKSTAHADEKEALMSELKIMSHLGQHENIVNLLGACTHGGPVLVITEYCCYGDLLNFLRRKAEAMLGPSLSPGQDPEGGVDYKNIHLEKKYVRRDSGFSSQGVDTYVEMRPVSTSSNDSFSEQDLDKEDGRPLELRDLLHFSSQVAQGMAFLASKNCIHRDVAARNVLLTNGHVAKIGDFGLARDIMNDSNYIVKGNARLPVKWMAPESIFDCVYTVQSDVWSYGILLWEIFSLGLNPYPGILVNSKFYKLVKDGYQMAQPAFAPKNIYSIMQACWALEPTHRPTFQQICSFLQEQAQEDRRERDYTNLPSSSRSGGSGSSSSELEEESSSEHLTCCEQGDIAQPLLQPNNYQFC

pIC50 [1] | pIC50 [2] | pIC50 (osteoclast precursors) | pIC50 [3] | pIC50 [4] | Structure (SMILES) | pIC50 (M-NFS-60 cells)
> 8.00 | 7.00 to 8.00 | > 8.00 | 7.00 to 8.00 | 6.00 to 7.00 | COC1(C(=O)NC(=O)Nc2ccc(Oc3ccnc(NC(C)=O)c3)cn2)CCCC1 [Example 67, N-((5-((2-acetamidopyridin-4-yl)oxy)pyridin-2-yl)carbamoyl)-1-methoxycyclopentanecarboxamide] | > 8.00
> 8.00 | > 8.00 | 7.00 to 8.00 | 7.00 to 8.00 | 6.00 to 7.00 | COC(C)(C)C(=O)NC(=O)Nc1cc(C)c(Oc2ccnc(NC(C)=O)c2)cn1 [Example 38, N-((5-((2-acetamidopyridin-4-yl)oxy)-4-methylpyridin-2-yl)carbamoyl)-2-methoxy-2-methylpropanamide] | > 8.00
> 8.00 | > 8.00 | > 8.00 | < 6.00 | < 6.00 | CC(=O)Nc1cc(Oc2ccc(NC(=O)NC(=O)C(C)(C)C)nc2C)ccn1 [Example 9, N-((5-((2-acetamidopyridin-4-yl)oxy)-6-methylpyridin-2-yl)carbamoyl)pivalamide] | > 8.00
> 8.00 | 7.00 to 8.00 | 7.00 to 8.00 | < 6.00 | < 6.00 | COC(C)(C)C(=O)NC(=O)Nc1ccc(Oc2ccnc(NC(C)=O)c2)c(C)n1 [Example 20, N-((5-((2-acetamidopyridin-4-yl)oxy)-6-methylpyridin-2-yl)carbamoyl)-2-methoxy-2-methylpropanamide] | > 8.00
> 8.00 | > 8.00 | > 8.00 | 6.00 to 7.00 | < 6.00 | Cc1nc(NC(=O)NC(=O)C(C)(C)C)ccc1Oc1ccnc(NC(=O)N2CCCC2)c1 [Example 71, N-(4-((2-methyl-6-(3-pivaloylureido)pyridin-3-yl)oxy)pyridin-2-yl)pyrrolidine-1-carboxamide] | > 8.00
> 8.00 | 7.00 to 8.00 | 7.00 to 8.00 | < 6.00 | < 6.00 | COCCNC(=O)Nc1cc(Oc2ccc(NC(=O)NC(=O)C(C)(C)C)nc2)ccn1 [Example 82, N-((5-((2-(3-(2-methoxyethyl)ureido)pyridin-4-yl)oxy)pyridin-2-yl)carbamoyl)pivalamide] | 6.00 to 7.00
7.00 to 8.00 | > 8.00 | 7.00 to 8.00 | 6.00 to 7.00 | < 6.00 | CNC(=O)Nc1cc(Oc2ccc(NC(=O)NC(=O)C(C)(C)C)nc2)ccn1 [Example 79, N-((5-((2-(3-methylureido)pyridin-4-yl)oxy)pyridin-2-yl)carbamoyl)pivalamide] | 6.00 to 7.00
7.00 to 8.00 | > 8.00 | > 8.00 | > 8.00 | 6.00 to 7.00 | CC(=O)Nc1cc(Oc2ccc(NC(=O)NC(=O)C3CCCC3)nc2)ccn1 [Example 2, N-((5-((2-acetamidopyridin-4-yl)oxy)pyridin-2-yl)carbamoyl)cyclopentanecarboxamide] | 7.00 to 8.00

Second part, the molecule before the results:

Structure (SMILES) | pIC50 [1] | pIC50 [2] | pIC50 (osteoclast precursors) | pIC50 [3] | pIC50 [4] | pIC50 (M-NFS-60 cells)
CC(C)(C)C(=O)NC(=O)Nc1ccc(Oc2ccnc(NC(=O)N3CCOCC3)c2)cn1 [Example 46, N-(4-((6-(3-pivaloylureido)pyridin-3-yl)oxy)pyridin-2-yl)morpholine-4-carboxamide] | > 8.00 | > 8.00 | > 8.00 | 6.00 to 7.00 | 6.00 to 7.00 | > 8.00
CNC(=O)c1cc(Oc2ccc(NC(=O)NC(=O)C(C)(C)OC)nc2)ccn1 [Example 58, 4-((6-(3-(2-methoxy-2-methylpropanoyl)ureido)pyridin-3-yl)oxy)-N-methylpicolinamide] | > 8.00 | 7.00 to 8.00 | 7.00 to 8.00 | < 6.00 | < 6.00 | 7.00 to 8.00
CC(C)C(=O)NC(=O)Nc1ccc(Oc2ccnc(NC(=O)N3CCN(C)CC3)c2)cn1 [Example 66, N-(4-((6-(3-isobutyrylureido)pyridin-3-yl)oxy)pyridin-2-yl)-4-methylpiperazine-1-carboxamide] | > 8.00 | > 8.00 | > 8.00 | 6.00 to 7.00 | < 6.00 | > 8.00
CN(C)C(=O)Nc1cc(Oc2ccc(NC(=O)NC(=O)C3(C)CCOCC3)nc2)ccn1 [Example 65, N-((5-((2-(3,3-dimethylureido)pyridin-4-yl)oxy)pyridin-2-yl)carbamoyl)-4-methyltetrahydro-2H-pyran-4-carboxamide] | 7.00 to 8.00 | > 8.00 | > 8.00 | 6.00 to 7.00 | 6.00 to 7.00 | 7.00 to 8.00
CN1CCC(C(=O)Nc2cc(Oc3ccc(NC(=O)NC(=O)C4(C)CC4)nc3)ccn2)CC1 [Example 33, 1-methyl-N-(4-((6-(3-(1-methylcyclopropanecarbonyl)ureido)pyridin-3-yl)oxy)pyridin-2-yl)piperidine-4-carboxamide] | 7.00 to 8.00 | 7.00 to 8.00 | 7.00 to 8.00 | 6.00 to 7.00 | < 6.00 | 6.00 to 7.00
COC(C)(C)C(=O)NC(=O)Nc1ccc(Oc2ccnc(NC(=O)C3CC3)c2)cn1 [Example 31, N-(4-((6-(3-(2-methoxy-2-methylpropanoyl)ureido)pyridin-3-yl)oxy)pyridin-2-yl)cyclopropanecarboxamide] | > 8.00 | > 8.00 | > 8.00 | 6.00 to 7.00 | 6.00 to 7.00 | 7.00 to 8.00
CC(C)C(=O)Nc1cc(Oc2ccc(NC(=O)NC(=O)C(C)(C)C)nc2)ccn1 [Example 17, N-((5-((2-isobutyramidopyridin-4-yl)oxy)pyridin-2-yl)carbamoyl)pivalamide] | 7.00 to 8.00 | 7.00 to 8.00 | 7.00 to 8.00 | 6.00 to 7.00 | < 6.00 | 7.00 to 8.00
CC(=O)Nc1cc(Oc2ccc(NC(=O)NC(=O)C3CCOCC3)nc2)ccn1 [Example 5, N-((5-((2-acetamidopyridin-4-yl)oxy)pyridin-2-yl)carbamoyl)tetrahydro-2H-pyran-4-carboxamide] | > 8.00 | 7.00 to 8.00 | > 8.00 | 6.00 to 7.00 | 6.00 to 7.00 | 7.00 to 8.00
CN1CCN(C2CCN(C(=O)Nc3cc(Oc4ccc(NC(=O)NC(=O)C(C)(C)C)nc4)ccn3)CC2)CC1 [Example 81, 4-(4-methylpiperazin-1-yl)-N-(4-((6-(3-pivaloylureido)pyridin-3-yl)oxy)pyridin-2-yl)piperidine-1-carboxamide] | > 8.00 | > 8.00 | > 8.00 | 6.00 to 7.00 | < 6.00 | 7.00 to 8.00
CN(C)C1CN(C(=O)Nc2cc(Oc3ccc(NC(=O)NC(=O)C(C)(C)C)nc3)ccn2)C1 [Example 77, 3-(dimethylamino)-N-(4-((6-(3-pivaloylureido)pyridin-3-yl)oxy)pyridin-2-yl)azetidine-1-carboxamide] | 7.00 to 8.00 | > 8.00 | > 8.00 | 7.00 to 8.00 | 6.00 to 7.00 | > 8.00
CCC(=O)Nc1cc(Oc2ccc(NC(=O)NC(=O)C3(C)CC3)nc2)ccn1 [Example 36, 1-methyl-N-((5-((2-propionamidopyridin-4-yl)oxy)pyridin-2-yl)carbamoyl)cyclopropanecarboxamide] | 7.00 to 8.00 | > 8.00 | > 8.00 | 7.00 to 8.00 | 6.00 to 7.00 | 7.00 to 8.00
